Source: US20020137929A1, “1 - (3-heterocyclylphenyl) isothiourea, -isourea, -guanidine and -amidine herbicidal agents” (Intellectual Property Department, BASF Aktiengesellschaft, priority 1998, published 2002)

Key:
[1] = system: CASOB (Sicklepod); test: Preemergence herbicidal evaluation; format: in vivo, Cassia obtusifolia; settings: rated 4-5 weeks after treatment
Method in brief: (§1)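 Sown cups got a single aqueous acetone spray of test compound (roughly 0.0156–0.500 kg/ha) before seedlings emerged. Evaluation, 4–5 weeks on, used a 0–9 visual scale covering plant stand, vigor, size, malformation, chlorosis and general appearance compared with controls.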

[2] = system: SAGPY (Arrowhead (Pygmaea)); test: Preemergence weed control under flooded paddy conditions; format: in vivo, Sagittaria pygmaea; settings: rated 3-4 weeks after treatment
Method in brief: (§2)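 Seeds or propagules sown in silt loam kept flooded 1.5-3 cm; compounds in 50/50 acetone/water pipetted into flood water at about 0.0313 to 0.500 kg/ha. Greenhouse; visual 0-9 rating versus untreated control 3-4 weeks after treatment.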

[3] = system: ECHCG (Barnyardgrass); test: Postemergence herbicidal evaluation; format: in vivo, Echinochloa crus-galli; settings: postemergence
Method in brief: (§3)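 Two-week seedlings sprayed postemergence at 40 psi; formulation: 1:1 acetone/water, 0.5% TWEEN 20; application ≈0.0156–0.500 kg/ha. Greenhouse grow-out, then 0–9 visual scoring at 4–5 weeks.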

[4] = system: MOOVA (Monochoria); test: Preemergence weed control under flooded paddy conditions; format: in vivo, Monochoria vaginalis; settings: rated 3-4 weeks after treatment
Method in brief: as §2

[5] = system: AMBEL (Ragweed, Common); test: Postemergence herbicidal evaluation; format: in vivo, Ambrosia artemisifolia; settings: postemergence
Method in brief: as §3

[6] = system: ABUTH (Velvetleaf); test: Preemergence herbicidal evaluation; format: in vivo, Abutilon theophrasti; settings: rated 4-5 weeks after treatment
Method in brief: as §1

[7] = system: ORYSAT (Rice, Tebonnet); test: Postemergence herbicidal evaluation; format: in vivo, Oryza sativa, (L.) Tebonnet; settings: postemergence
Method in brief: as §3

[8] = system: ABUTH (Velvetleaf); test: Postemergence herbicidal evaluation; format: in vivo, Abutilon theophrasti; settings: postemergence
Method in brief: as §3

[9] = system: SETVI (Foxtail, Green); test: Postemergence herbicidal evaluation; format: in vivo, Setaria viridis; settings: postemergence
Method in brief: as §3

[10] = system: GLXMAW (Soybean, Williams); test: Postemergence herbicidal evaluation; format: in vivo, Glycine max, (L.) Merr. cv Williams; settings: postemergence
Method in brief: as §3

[11] = system: TRZAWR (Wheat, Winter, cv Riband); test: Postemergence herbicidal evaluation; format: in vivo, Triticum aestivum; settings: postemergence
Method in brief: as §3

[12] = system: SETVI (Foxtail, Green); test: Preemergence herbicidal evaluation; format: in vivo, Setaria viridis; settings: rated 4-5 weeks after treatment
Method in brief: as §1

COCCOC(=O)CN1C(=O)CSC1=Nc1cc(-n2c(=O)cc(C(F)(F)F)n(C)c2=O)c(F)cc1Cl [Compound 107, 2-Methoxyethyl 2-{{2-chloro-5-[3,6-dihydro-3-methyl-2,6-dioxo-4-(trifluoromethyl)-1(2H)-pyrimidinyl]-4-fluorophenyl}imino}-4-oxo-3-thiazolidineacetate]
Preemergence herbicidal rating CASOB ([1]; rate 0.0313 kg/ha): 0.0 | Preemergence herbicidal rating CASOB ([1]; rate 0.0625 kg/ha): 0.0 | Preemergence herbicidal rating CASOB ([1]; rate 0.1250 kg/ha): 0.0 | Preemergence herbicidal rating CASOB ([1]; rate 0.2500 kg/ha): 1.0 | SAGPY herbicidal effect rating ([2]; 0.0313 kg/ha): 0.0 | SAGPY herbicidal effect rating ([2]; 0.0625 kg/ha): 0.0 | SAGPY herbicidal effect rating ([2]; 0.1250 kg/ha): 0.0 | SAGPY herbicidal effect rating ([2]; 0.2500 kg/ha): 3.0 | herbicidal rating ECHCG ([3]; rate 0.0158 kg/ha): 1.0 | herbicidal rating ECHCG ([3]; rate 0.0315 kg/ha): 1.0 | herbicidal rating ECHCG ([3]; rate 0.0630 kg/ha): 3.0 | MOOVA herbicidal effect rating ([4]; 0.0313 kg/ha): 4.0 | MOOVA herbicidal effect rating ([4]; 0.0625 kg/ha): 6.0 | MOOVA herbicidal effect rating ([4]; 0.1250 kg/ha): 7.0 | MOOVA herbicidal effect rating ([4]; 0.2500 kg/ha): 9.0 | herbicidal rating AMBEL ([5]; rate 0.0158 kg/ha): 2.0 | herbicidal rating AMBEL ([5]; rate 0.0315 kg/ha): 2.0 | herbicidal rating AMBEL ([5]; rate 0.0630 kg/ha): 2.0 | Preemergence herbicidal rating ABUTH ([6]; rate 0.0313 kg/ha): 0.0 | Preemergence herbicidal rating ABUTH ([6]; rate 0.0625 kg/ha): 1.0 | Preemergence herbicidal rating ABUTH ([6]; rate 0.1250 kg/ha): 9.0 | Preemergence herbicidal rating ABUTH ([6]; rate 0.2500 kg/ha): 9.0 | herbicidal rating ORYSAT ([7]; rate 0.0158 kg/ha): 2.0 | herbicidal rating ORYSAT ([7]; rate 0.0315 kg/ha): 2.0 | herbicidal rating ORYSAT ([7]; rate 0.0630 kg/ha): 4.5 | herbicidal rating ABUTH ([8]; rate 0.0158 kg/ha): 9.0 | herbicidal rating ABUTH ([8]; rate 0.0315 kg/ha): 7.0 | herbicidal rating ABUTH ([8]; rate 0.0630 kg/ha): 9.0 | herbicidal rating SETVI ([9]; rate 0.0158 kg/ha): 1.0 | herbicidal rating SETVI ([9]; rate 0.0315 kg/ha): 9.0 | herbicidal rating SETVI ([9]; rate 0.0630 kg/ha): 9.0 | herbicidal rating GLXMAW ([10]; rate 0.0158 kg/ha): 4.5 | herbicidal rating GLXMAW ([10]; rate 0.0315 kg/ha): 5.0 | herbicidal rating GLXMAW ([10]; rate 0.0630 kg/ha): 5.5 | herbicidal rating TRZAWR ([11]; rate 0.0158 kg/ha): 2.0 | herbicidal rating TRZAWR ([11]; rate 0.0315 kg/ha): 3.0 | herbicidal rating TRZAWR ([11]; rate 0.0630 kg/ha): 5.0 | Preemergence herbicidal rating SETVI ([12]; rate 0.0313 kg/ha): 0.0 | Preemergence herbicidal rating SETVI ([12]; rate 0.0625 kg/ha): 1.0 | Preemergence herbicidal rating SETVI ([12]; rate 0.1250 kg/ha): 0.0 | Preemergence herbicidal rating SETVI ([12]; rate 0.2500 kg/ha): 7.0
